SMILES strings stand for the structures.

The test system of one assay is pERK in MKN1 cells. Briefly: pERK inhibition, In-Cell Western (LI-COR Odyssey), MKN1 cells. The class given is cell-based. As to conditions: Homo sapiens, MKN-1, Table B; MKN1 or H358 cells (table does not say which); 0.5-1 hour incubation; read-out: IC50 (nM), pERK inhibition. The method, boiled down:
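MKN1 cells were exposed for about 0.5–1 h at 37 °C to nine 3-fold dilutions starting at 10 µM. Cells were then fixed in formaldehyde, permeabilised with methanol, and immunostained for pERK and GAPDH with near-infrared secondary antibodies. GAPDH-normalised pERK signal relative to vehicle gave % inhibition, from which IC50 was fitted.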

Assay [1] deals with T1, recombinant human SOS1 polypeptide (amino acids 560-1049) (Homo sapiens, UniProt Q07889).
T1 construct: corresponding to amino acids 560-1049, expressed in E. Coli; made in house; host or cells: E. coli
T1 sequence (Q07889 560-1049): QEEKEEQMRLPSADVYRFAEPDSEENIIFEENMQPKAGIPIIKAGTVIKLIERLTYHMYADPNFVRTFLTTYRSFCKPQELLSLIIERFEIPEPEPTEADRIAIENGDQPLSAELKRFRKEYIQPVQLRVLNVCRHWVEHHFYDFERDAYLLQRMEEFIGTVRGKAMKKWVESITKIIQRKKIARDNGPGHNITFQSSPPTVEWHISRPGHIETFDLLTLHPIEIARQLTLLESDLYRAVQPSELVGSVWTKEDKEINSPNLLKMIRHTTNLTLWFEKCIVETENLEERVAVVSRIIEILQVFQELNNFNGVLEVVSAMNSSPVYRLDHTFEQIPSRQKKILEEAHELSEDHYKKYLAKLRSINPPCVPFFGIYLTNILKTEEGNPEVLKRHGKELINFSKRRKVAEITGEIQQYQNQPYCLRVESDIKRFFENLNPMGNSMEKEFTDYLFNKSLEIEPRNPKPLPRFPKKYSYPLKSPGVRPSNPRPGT
Briefly: HTRF displacement assay: inhibition of labeled tracer binding to SOS1. The note with it: Table A, Morrison equation for competitive binding. On the technique in general: Time-resolved FRET reads energy transfer from a long-lived donor to a nearby acceptor.

As for `Cc1c(C#N)cccc1[C@@H](C)Nc1nnc(C)c2cnc(N3CCCC34CN(C)C4)cc12` [Example 1-22, (R)-2-methyl-3-(1-((4-methyl-7-(2-methyl-2,5-diazaspiro[3.4]octan-5-yl)pyrido[3,4-d]pyridazin-1-yl)amino)ethyl)benzonitrile], the IC50 (as a rule, the point on the concentration scale where inhibition reaches its midpoint) in the assay on pERK in MKN1 cells is 33.2 nM. In addition, the Ki (as a rule, the equilibrium dissociation constant of an inhibitor or competing ligand from its target) in assay [1] worked out at 0.248 nM.

For `Cc1nnc(N[C@H](C)c2cccc(C(F)(F)F)c2F)c2cc(N3CC4(CN(C)C4)C3)ncc12` [Example 1-23, (R)-N-(1-(2-fluoro-3-(trifluoromethyl)phenyl)ethyl)-4-methyl-7-(6-methyl-2,6-diazaspiro[3.3]heptan-2-yl)pyrido[3,4-d]pyridazin-1-amine], in the assay on pERK in MKN1 cells, the IC50 turned out to be 59.1 nM. Moreover, the Ki in assay [1] was determined as 0.21 nM.

As for `Cc1c(C#N)cccc1[C@@H](C)Nc1nnc(C)c2cnc(N3CC4(CN(C)C4)C3)cc12` [Example 1-24, (R)-2-methyl-3-(1-((4-methyl-7-(6-methyl-2,6-diazaspiro[3.3]heptan-2-yl)pyrido[3,4-d]pyridazin-1-yl)amino)ethyl)benzonitrile], the IC50 in the assay with pERK in MKN1 cells turned out to be 40.3 nM. For the same molecule, the Ki in assay [1] was 0.353 nM.

In the case of `Cc1c(C#N)cccc1[C@@H](C)Nc1nnc(C)c2cnc(N3CCC4(CN(C)C4)C3)cc12` [Example 1-25, (R)-2-methyl-3-(1-((4-methyl-7-(2-methyl-2,6-diazaspiro[3.4]octan-6-yl)pyrido[3,4-d]pyridazin-1-yl)amino)ethyl)benzonitrile], the IC50 with pERK in MKN1 cells came out at 68.6 nM. Also, the Ki in assay [1] stood at 0.492 nM.

Regarding `Cc1nnc(N[C@H](C)c2cccc(C(F)(F)F)c2F)c2cc(N3CCC4(CN(C)C4)C3)ncc12` [Example 1-26, (R)-N-(1-(2-fluoro-3-(trifluoromethyl)phenyl)ethyl)-4-methyl-7-(2-methyl-2,6-diazaspiro[3.4]octan-6-yl)pyrido[3,4-d]pyridazin-1-amine], the concentration for half-maximal inhibition (IC50) in the assay on pERK in MKN1 cells stood at 30.8 nM. Moreover, the Ki in assay [1] came out at 0.348 nM.

`CCN1CC2(C1)CN(c1cc3c(N[C@H](C)c4cccc(C(F)(F)F)c4F)nnc(C)c3cn1)C2` [Example 1-27, (R)-7-(6-ethyl-2,6-diazaspiro[3.3]heptan-2-yl)-N-(1-(2-fluoro-3-(trifluoromethyl)phenyl)ethyl)-4-methylpyrido[3,4-d]pyridazin-1-amine]: the IC50 in the assay with pERK in MKN1 cells was found to be 18.6 nM. For the same molecule, in assay [1], the Ki stood at 0.27 nM.

`Cc1c([C@@H](C)Nc2nnc(C)c3cnc(N4CC5(CN(C)C5)C4)cc23)cccc1C(F)(F)F` [Example 1-32, (R)-4-methyl-N-(1-(2-methyl-3-(trifluoromethyl)phenyl)ethyl)-7-(6-methyl-2,6-diazaspiro[3.3]heptan-2-yl)pyrido[3,4-d]pyridazin-1-amine]: in the assay on pERK in MKN1 cells, the IC50 is 32.3 nM. In assay [1], the Ki amounted to 0.163 nM.

In the case of `Cc1c(C#N)cccc1[C@@H](C)Nc1nnc(C)c2cnc(N3CCN(C4CC4)CC3)cc12` [Example 1-33, (R)-3-(1-((7-(4-cyclopropylpiperazin-1-yl)-4-methylpyrido[3,4-d]pyridazin-1-yl)amino)ethyl)-2-methylbenzonitrile], the IC50 in the assay on pERK in MKN1 cells was 87.8 nM. In addition, the Ki in assay [1] worked out at 1.87 nM.

As to `Cc1c(C#N)cccc1[C@@H](C)Nc1nnc(C)c2cnc(N3C[C@@H]4C[C@H]3CN4C)cc12` [Example 1-34, 2-methyl-3-((R)-1-((4-methyl-7-((1S,4S)-5-methyl-2,5-diazabicyclo[2.2.1]heptan-2-yl)pyrido[3,4-d]pyridazin-1-yl)amino)ethyl)benzonitrile], the IC50 in the assay with pERK in MKN1 cells turned out to be 49.2 nM. Moreover, the Ki in assay [1] amounted to 2.25 nM.

Take `Cc1c(C#N)cccc1[C@@H](C)Nc1nnc(C)c2cnc(N3C[C@H]4C[C@@H]3CN4C)cc12` [Example 1-35, 2-methyl-3-((R)-1-((4-methyl-7-((1R,4R)-5-methyl-2,5-diazabicyclo[2.2.1]heptan-2-yl)pyrido[3,4-d]pyridazin-1-yl)amino)ethyl)benzonitrile]: in the assay on pERK in MKN1 cells, the IC50 was determined as 18.4 nM. In addition, the Ki in assay [1] was determined as 1.19 nM.

Take `CCN1C[C@@H]2C[C@H]1CN2c1cc2c(N[C@H](C)c3cccc(C#N)c3C)nnc(C)c2cn1` [Example 1-36, 3-((R)-1-((7-((1S,4S)-5-ethyl-2,5-diazabicyclo[2.2.1]heptan-2-yl)-4-methylpyrido[3,4-d]pyridazin-1-yl)amino)ethyl)-2-methylbenzonitrile]: the IC50 with pERK in MKN1 cells turned out to be 75.5 nM. In assay [1], the Ki was 3.43 nM.

Take `CCN1C[C@H]2C[C@@H]1CN2c1cc2c(N[C@H](C)c3cccc(C#N)c3C)nnc(C)c2cn1` [Example 1-37, 3-((R)-1-((7-((1R,4R)-5-ethyl-2,5-diazabicyclo[2.2.1]heptan-2-yl)-4-methylpyrido[3,4-d]pyridazin-1-yl)amino)ethyl)-2-methylbenzonitrile]: the IC50 with pERK in MKN1 cells was found to be 19.7 nM. The Ki in assay [1] is 1.61 nM.

As to `CCN1CC[C@H](Nc2cc3c(N[C@H](C)c4cccc(C#N)c4C)nnc(C)c3cn2)C1` [Example 1-38, 3-((R)-1-((7-(((S)-1-ethylpyrrolidin-3-yl)amino)-4-methylpyrido[3,4-d]pyridazin-1-yl)amino)ethyl)-2-methylbenzonitrile], the IC50 in the assay with pERK in MKN1 cells worked out at 221 nM. Besides, in assay [1], the Ki was 5.6 nM.

On to `CCN1CC[C@@H](Nc2cc3c(N[C@H](C)c4cccc(C#N)c4C)nnc(C)c3cn2)C1` [Example 1-39, 3-((R)-1-((7-(((R)-1-ethylpyrrolidin-3-yl)amino)-4-methylpyrido[3,4-d]pyridazin-1-yl)amino)ethyl)-2-methylbenzonitrile], for which the IC50 with pERK in MKN1 cells was 126 nM. Further, the Ki in assay [1] was 4 nM.

Take `Cc1c(C#N)cccc1[C@@H](C)Nc1nnc(C)c2cnc(N(C)C3CCN(C)CC3)cc12` [Example 1-40, (R)-2-methyl-3-(1-((4-methyl-7-(methyl(1-methylpiperidin-4-yl)amino)pyrido[3,4-d]pyridazin-1-yl)amino)ethyl)benzonitrile]: the IC50 in the assay with pERK in MKN1 cells was found to be 45.4 nM. For the same molecule, the Ki in assay [1] worked out at 0.805 nM.

Consider `Cc1c(C#N)cccc1[C@@H](C)Nc1nnc(C)c2cnc(NC3CCN(C)CC3)cc12` [Example 1-41, (R)-2-methyl-3-(1-((4-methyl-7-((1-methylpiperidin-4-yl)amino)pyrido[3,4-d]pyridazin-1-yl)amino)ethyl)benzonitrile], for which the IC50 with pERK in MKN1 cells worked out at 272 nM. The Ki in assay [1] stood at 4.49 nM.

Consider `CCN1CCC(Nc2cc3c(N[C@H](C)c4cccc(C#N)c4C)nnc(C)c3cn2)CC1` [Example 1-42, (R)-3-(1-((7-((1-ethylpiperidin-4-yl)amino)-4-methylpyrido[3,4-d]pyridazin-1-yl)amino)ethyl)-2-methylbenzonitrile], for which, in the assay on pERK in MKN1 cells, the IC50 came to 257 nM. For the same molecule, the Ki in assay [1] stood at 7.37 nM.

Take `CCN1CCC(N(C)c2cc3c(N[C@H](C)c4cccc(C#N)c4C)nnc(C)c3cn2)CC1` [Example 1-43, (R)-3-(1-((7-((1-ethylpiperidin-4-yl)(methyl)amino)-4-methylpyrido[3,4-d]pyridazin-1-yl)amino)ethyl)-2-methylbenzonitrile]: the IC50 in the assay on pERK in MKN1 cells came out at 42.2 nM. The Ki in assay [1] was determined as 1.28 nM.

For the molecule `CCN1CCN(c2cc3c(N[C@H](C)c4cccc(C#N)c4C)nnc(C)c3cn2)CC1=O` [Example 1-44, (R)-3-(1-((7-(4-ethyl-3-oxopiperazin-1-yl)-4-methylpyrido[3,4-d]pyridazin-1-yl)amino)ethyl)-2-methylbenzonitrile], in the assay with pERK in MKN1 cells, the IC50 came to 44.6 nM. Also, the Ki in assay [1] is 1.9 nM.

For the origin of these results see patent US20250059182A1, “SOS1 INHIBITORS” (Mirati Therapeutics, Inc., priority 2021, published 2025).
